Assay results published in patent US11634624B2, “Surfactants for enhanced oil recovery” (MOL MAGYAR OLAJ- ÉS GÁZIPARI NYILVÁNOSAN MŰKÖDŐ …, priority 2018, dated 2023).

How the values were obtained:
[1] = Interfacial tension (IFT), spinning drop; type: physicochemical; conditions: for IFT (mN/m), concentration 0.1 g/l / IFT (mN/m), concentration 1 g/l / IFT (mN/m), concentration 5 g/l: commercial surfactants; for IFT (mN/m) 0.1 g/l / IFT (mN/m) 1.0 g/l: 40° C., 4500 rpm
Method: The interfacial tension (IFT) in the following examples is measured in a spinning drop type tensile meter at 4500 rpm at 40° C. temperature. The test capillary was filled with various concentrations of surfactant solution into which a drop of oil of Algyő type oil was injected through a syringe. In steady state, the interfacial tension between the surfactant solution and the crude oil can be calculated based on the geometric dimensions of the droplet taken by the oil drop.

[2] = Thermal (heat/hydrolytic) stability, 90° C., 3 hours, transmittance; type: physicochemical; conditions: for Heat stability (90° C., 3 hours), appearance: appearance symbol; for Heat stability (90° C., 3 hours) (%): turbidity number
[3] = type: physicochemical
From the text: For the test, the prepared surfactant solution samples were filled into a clean, dry cuvette and then scattered in a spectrophotometer at 500 nm wavelength using a nephelometric pad at ambient temperature. The turbidity of the sample to be tested is compared to the light scattering of pure water (0%) and the reference opal body (100%).

[4] = Oil solubility (turbidity of 1% in model oil); type: physicochemical; conditions: for Solubility in oil, appearance / dissolution: symbol or word
Method: In the course of the test, 0.2 g of the surfactant to be tested is weighed into 20 g of model oil and then dissolved for 1 hour at 60° C. with vigorous stirring. After cooling, the samples were poured into a clean, dry cuvette and then scattered at 500 nm with a spectrophotometer at ambient temperature. As reference, the light scattering of pure oil (0%) and standard opal body (100%) is used.

Row | Compound | IFT (mN/m), concentration 0.1 g/l [1] [mN/m] | IFT (mN/m), concentration 1 g/l [1] [mN/m] | IFT (mN/m), concentration 5 g/l [1] [mN/m] | Heat stability (90° C., 3 hours), appearance [2] | Heat stability (90° C., 3 hours) (%) [2] [%] | IFT (mN/m) 0.1 g/l [1] [mN/m] | IFT (mN/m) 1.0 g/l [1] [mN/m] | Water solubility (%) [3] [%] | Water solubility, appearance [3] | Solubility in oil, appearance / dissolution [4] | Water solubility [3] [%] | Solubility in oil (%) ([4]; turbidity number)
1 | CC(O)CO (stereo not drawn) [Propylene glycol, reference compound] | 11.53 | 16.14 | 15.4 |  |  |  |  |  |  |  |  | 
2 | CCCCCCCCCCCCc1ccc(S(=O)(=O)O)cc1.CCCCCCCCCCCCc1ccc(S(=O)(=O)O)cc1.CN(C)CCCNCCCN(C)C.Cl [Example 38] |  |  |  | op. | 31 | 0.15 | 0.16 |  |  |  |  | 
3 | CCCCCCCCCCCCc1ccc(S(=O)(=O)O)cc1.CCCCCCCCCCCCc1ccc(S(=O)(=O)O)cc1.NCCCCN [Example 23] |  |  |  | b. | 20 | 0.120 | 0.170 | 100 | m. | n.o. |  | 
4 | CCCCCCCCCCCCc1ccc(S(=O)(=O)O)cc1.CCCCCCCCCCCCc1ccc(S(=O)(=O)O)cc1.NCCCCCCN [Example 21] |  |  |  | m. | 100 | 0.019 | 0.015 | 100 | m. | n.o. |  | 
5 | 2-methylpentane-1,5-diammonium-bis(C14-C17 sec-alkylsulphonate) [Example 5] |  |  |  |  |  |  |  | 100 | m. |  | 100 | 
6 | bis(C14-C17 sec-alkyl)-sulphonate-poly (propylene-glycol)-bis-(2-ammonium-propyl)-ether salt [Example 3] |  |  |  |  |  |  |  |  |  |  | 4 | 
7 | CCCCCCCCCCCCc1ccc(S(=O)(=O)O)cc1.CCCCCCCCCCCCc1ccc(S(=O)(=O)O)cc1.NCCCOCCCCOCCCN [Example 24] |  |  |  | op. | 100 | 0.042 | 0.103 | 100 | m. | op. |  | 18
8 | CCCCCCCCCCCCc1ccc(S(=O)(=O)[O-])cc1.[Na+] [DBSNa-salt 30% solution, Sodium salt of dodecylbenzylsulfonic acid, reference compound] | 0.34 | 0.63 | 0.88 |  |  |  |  |  |  |  |  | 
